The results in this text go back to patent US4407803A, “Antiinflammatory 1-(quinolinyl)-2-pyrazoline derivatives” (Abbott Laboratories, priority 1981, dated 1983).

For test [1], the system named is carrageenin pleurisy. Put plainly: modification of the carrageenin pleurisy assay (reduction in accumulation of exudate volume and leukocytes). Format: in vivo. The note with it: for % Inhibition Cells: leukocytes. An excerpt: The compounds of the present invention have anti-inflammatory activity and inhibitory effect against Type III hypersensitivity reaction. These compounds are useful for the therapy of rheumatoid arthritis, other inflammatory conditions, Type III hypersensitivity diseases and in diseases in which polymorphonuclear leukocytes accumulation contributes to the pathology. The anti-inflammatory activity of these compounds was established by using a modification of the carrageenin pleurisy assay described by Vinegar et al. Proc. Soc. Exp. Biol. Med. 143:711 (1973).

For test [2], the system named is dermal Arthus reaction. The test is described as follows: reverse passive Arthus assay in rats (dermal lesion). The settings on record: 100 mg/kg, oral, 30 min before anti-B.S.A.; lesion measured at four hours. It counts as in vivo, Male Sprague-Dawley rats. The method, then: Proc. 35, 774 (1976). Each compound was administered orally to a group of four animals.
The […] passive Arthus reaction test in rats is conducted as follows: Male Sprague-Dawley rats weighing approximately 130-160 g. are used, 4 rats per group. All animals are injected intravenously with 0.5 ml. 0.075% Bovine Serum Albumin (B.S.A.)+2% Evans Blue solution. Each rat then receives an oral dose of drug; one drug is administered per group.
Thirty minutes subsequent to drug dosing, each animal is injected intradermally with 0.05 ml. 1.44% Anti-B.S.A. into the dorsal skin. Four hours later the animals are sacrificed, the dorsal skin reflexed, and the lesion excised. Two perpendicular diameters of each lesion are measured. The average diameters of the lesions from the treated groups are compared with the average diameters from the control group to determine any drug effect.

Consider `CCCCC1C(=O)N(c2ccccc2)N(c2ccccc2)C1=O` [Phenylbutazone, reference compound], for which, in test [1] (Dose 100 (dose unit not given)), the “% Inhibition Volume exudates” value amounted to 59% and the “% Inhibition Cells” value is on record as 13%. Consider `N=C1CCN(c2ccc3ccccc3n2)N1` [1-(2'-quinolinyl)-3-iminopyrazolidine, 1-(2'-quinolinyl)-3-imino-pyrazolidine], for which, in test [2], the “% Inhibition of lesion of dermal Arthus reaction” value is 72%. As for `N=C1CCN(c2cnc3ccccc3c2)N1` [1-(3'-quinolinyl)-3-iminopyrazolidine, 1-(3'-Quinolinyl)-3-iminopyrazolidine], in test [1] (Dose 60 (dose unit not given)), the “% Inhibition Volume exudates” value stood at 86% and the “% Inhibition Cells” value came out at 71%. For the same compound, in test [2], the “% Inhibition of lesion of dermal Arthus reaction” value was found to be 37%. With `N=C1CCN(c2ccnc3cc(Cl)ccc23)N1` [1-(7'-chloro-4'-quinolinyl)-3-imino pyrazolidine], the “% Inhibition of lesion of dermal Arthus reaction” value in test [2] is given as 53%.
